According to patent US10214779B2, “Method for identification of anti-HIV human miRNA mimics and miRNA inhibitors and anti-HIV pharmaceutical compounds” (CSIR, priority 2013, dated 2019):
Counter-ions that a name gives are not always drawn. *1 amine or outer side, *2 acyl side, *3 side chain or, on linkers, in order; H or OH if unused. Where a SMILES comes first, the peptide text is derived from it. Bridges are numbered along the chain shown (N, C = ends). Roman numbers before positions name the chains, in order. [ ]: non-standard residue; d: D form. Actinocin(9to1) = Cc1c2oc3c(C)ccc(C(=O)[*:1])c3nc-2c(C(=O)[*:2])c(N)c1=O; NMeV = CN[C@H](C(=O)O)C(C)C; Sar = CNCC(=O)O

Experiments:
[1] = tested on: HIV (Subtype B pseudoviral strain, PSGIII) in GHOST(3) cells; test: Targeted drug screen, Clearance Screen (drug after HIV infection) in GHOST(3) cells; type: cell-based, HIV-1; details: infection MOI 0.5 for 48 hour, then drug 24 h, screened at 100 nM, 1 uM and 10 uM
Protocol: A library of 101 Food and Drug Administration (FDA) approved oncology drugs as well as a library of 192 kinase-inhibitor compounds were screened as potential anti-HIV therapeutics using the GHOST(3) reporter cell line. Drugs were screened at 3 different concentrations of 100 nM, 1 uM and 10 uM. Each library was screened in triplicate at each drug concentration and in the following 3 formats:
This screen format was utilised to identify drugs/compounds that were able to suppress HIV replication in host cells already infected by HIV or drugs/compounds that were able to selectively target HIV-infected cells for apoptosis. GHOST(3) cells were seeded in the wells of a 96 well plate 24 hour prior to infection with the Subtype B pseudoviral strain, PSGIII, at an MOI of 0.5. The infective media was then removed 48 hour post infection and replaced with normal culture media supplemented with a drug/compound at the appropriate concentration. Twenty-four hours post drug treatment, cells were processed for imaging as previously described.
This screen format was used as a control to identify drugs that were broadly cytotoxic. […] GHOST(3) cells were seeded in 96 well plates, 24 hr post seeding, drugs were added to culture medium at the required final concentration. Twenty-four hours post drug treatment cells were processed for imaging as described previously.
Subtype B viral stocks were produced by the dual transfection of HEK293T cells with a PSGIII (Subtype B) viral backbone plasmid which lacks an envelope/packaging protein and a second plasmid expressing an HIV-BAL viral envelope protein (Subtype B). Plasmid transfections were conducted using the FuGene 6 lipid-based transfection reagent (Promega) as per the manufacturer's guidelines. Viral titres were determined using a luciferase readout-assay based on the JC53 cell line and the TCID50 calculation method described by Reed and Muench (1938). GHOST(3) cells were exposed to virions at an MOI of 0.5 for both the miRNA and targeted drug/compound screens. Cells were infected in SFM supplemented with 1× Glutamax (Infecting media) as FBS has previously been described to negatively impact the infection efficiency of HIV.
Cells were washed twice in 1×PBS before fixation with a 3.7% Formaldehyde solution for 30 minutes at room temperature. Cells were washed once with 1× PBS before the addition of Hoechst Nuclear stain (Invitrogen) at 2 uM final concentration in 1×PBS for 30 minutes at room temperature. The Hoechst staining solution was aspirated and replaced with 50 uL of 1×PBS solution before imaging.
Four fields of view (100 um apart) were acquired from the central region of each well imaged. Images were acquired in the 405 and 488 fluorescent channels for each field of view. Wells were imaged using the 20× ewld objective on the Image Xpress Ultra automated confocal microscope system (Molecular Devices). The imaging parameters were kept constant for all replicates of both miRNA and targeted drug/compound screens.
Feature extraction algorithms were utilized in order to extract 16 subcellular measurements from the acquired images. These 16 factors are derived from 15 descriptors previously described by Genovesio et al. 2011 to be relevant indicators of the infective state of host cells, with addition of ‘infection efficiency’ as a descriptor of the percentage of infected cells per treatment well.
A bespoke support vector machine-learning (SVML) pattern recognition algorithm was trained to identify phenotypes of interest using the relevant control wells. […] The transfection of siCD4 and Raltegravir treatment were thus utilised in the miRNA and drug/compound screens respectively as positive controls for the inhibition of HIV-1 replication. […]

[2] = tested on: HIV (Subtype B pseudoviral strain, PSGIII) in GHOST(3) cells; test: Targeted drug screen, Phenocopy Screen (drug before HIV infection) in GHOST(3) cells; details: for Effect (Phenocopy Screen): drug 24 h before infection, MOI 0.5, 48 hour, screened at 100 nM, 1 uM and 10 uM, GHOST(3) cells
Protocol: GHOST(3) cells were seeded in the wells of a 96 well plate 24 hour prior to addition of a specific oncology drug at the appropriate concentration. Twenty-four hours post drug treatment, the drug supplemented media was removed and replaced with infective media containing the Subtype B pseudoviral strain, PSGIII. Cells were infected at an MOI of 0.5. The infective media was removed 48 hour post infection and cells were processed for imaging as previously described (See Sample Preparation).
Four fields of view (100 um apart) were acquired from the central region of each well imaged. […] Wells were imaged using the 20× ewld objective on the Image Xpress Ultra automated confocal microscope system (Molecular Devices). The imaging parameters were kept constant for all replicates of both miRNA and targeted drug/compound screens.

[3] = molecular target: T1, Aurora A (Homo sapiens, UniProt O14965); details: cited from earlier work
T1 sequence (O14965 1-403): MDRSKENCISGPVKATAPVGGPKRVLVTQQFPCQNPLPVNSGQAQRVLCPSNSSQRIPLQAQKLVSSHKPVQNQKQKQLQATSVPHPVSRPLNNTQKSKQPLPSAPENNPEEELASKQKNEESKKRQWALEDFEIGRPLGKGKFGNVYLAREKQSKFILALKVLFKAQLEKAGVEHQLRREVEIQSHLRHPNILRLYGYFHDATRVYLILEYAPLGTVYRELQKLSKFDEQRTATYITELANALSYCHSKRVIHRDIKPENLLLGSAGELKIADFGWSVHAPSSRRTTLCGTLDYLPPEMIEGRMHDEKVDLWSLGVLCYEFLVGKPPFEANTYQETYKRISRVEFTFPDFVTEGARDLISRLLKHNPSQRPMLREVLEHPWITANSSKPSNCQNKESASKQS

[4] = molecular target: Aurora B (Homo sapiens, UniProt Q96GD4); details: cited from earlier work
[5] = molecular target: p110γ (Homo sapiens, UniProt P48736); details: cited from earlier work
Sequence of p110γ (P48736 whole entry, species assumed): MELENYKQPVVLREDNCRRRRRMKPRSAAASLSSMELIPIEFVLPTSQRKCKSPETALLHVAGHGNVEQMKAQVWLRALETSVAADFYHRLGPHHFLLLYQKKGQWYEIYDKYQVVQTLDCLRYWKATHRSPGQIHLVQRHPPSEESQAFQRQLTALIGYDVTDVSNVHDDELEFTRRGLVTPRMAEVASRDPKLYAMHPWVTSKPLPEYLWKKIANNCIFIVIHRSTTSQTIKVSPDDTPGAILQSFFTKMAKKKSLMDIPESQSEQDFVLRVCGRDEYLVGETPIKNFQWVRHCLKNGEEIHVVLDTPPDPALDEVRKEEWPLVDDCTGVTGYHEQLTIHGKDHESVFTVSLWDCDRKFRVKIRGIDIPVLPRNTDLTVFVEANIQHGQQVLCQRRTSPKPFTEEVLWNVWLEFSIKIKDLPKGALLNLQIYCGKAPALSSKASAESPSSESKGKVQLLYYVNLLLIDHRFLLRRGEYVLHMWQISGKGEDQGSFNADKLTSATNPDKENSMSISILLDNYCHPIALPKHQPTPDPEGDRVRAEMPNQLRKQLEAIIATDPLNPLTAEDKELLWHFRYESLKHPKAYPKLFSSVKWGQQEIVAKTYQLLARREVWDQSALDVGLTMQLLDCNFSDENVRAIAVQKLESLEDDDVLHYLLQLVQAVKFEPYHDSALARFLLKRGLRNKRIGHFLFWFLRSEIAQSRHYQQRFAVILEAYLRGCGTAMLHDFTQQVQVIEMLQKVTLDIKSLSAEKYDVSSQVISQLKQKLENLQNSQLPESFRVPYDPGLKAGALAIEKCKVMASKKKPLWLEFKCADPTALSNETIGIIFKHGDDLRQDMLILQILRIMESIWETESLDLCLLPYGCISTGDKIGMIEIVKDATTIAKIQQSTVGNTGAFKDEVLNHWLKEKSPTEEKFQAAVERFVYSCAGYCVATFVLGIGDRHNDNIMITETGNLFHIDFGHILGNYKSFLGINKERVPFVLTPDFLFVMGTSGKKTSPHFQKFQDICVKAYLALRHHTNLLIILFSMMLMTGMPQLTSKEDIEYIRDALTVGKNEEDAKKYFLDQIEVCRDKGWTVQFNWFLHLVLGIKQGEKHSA

Sequence of Aurora B (Q96GD4 whole entry): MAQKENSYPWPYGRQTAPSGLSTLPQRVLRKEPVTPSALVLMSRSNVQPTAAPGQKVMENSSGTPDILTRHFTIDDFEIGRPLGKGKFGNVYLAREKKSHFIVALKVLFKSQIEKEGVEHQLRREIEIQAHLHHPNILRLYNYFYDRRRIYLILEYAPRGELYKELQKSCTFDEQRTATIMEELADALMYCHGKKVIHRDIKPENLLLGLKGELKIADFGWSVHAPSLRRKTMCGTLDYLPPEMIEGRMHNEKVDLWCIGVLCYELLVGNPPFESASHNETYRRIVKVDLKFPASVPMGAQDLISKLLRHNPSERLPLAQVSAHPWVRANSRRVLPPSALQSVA

Row | SMILES | Effect (Phenocopy Screen) [2] | further results
1 | Cc1[nH]nc2ccc(-c3cncc(OC[C@@H](N)Cc4ccccc4)c3)cc12 [A-674563] |  | Effect (Clearance Screen) [1]: Suppressed HIV^b
2 | O=C(NC1CCNCC1)c1[nH]ncc1NC(=O)c1c(Cl)cccc1Cl [AT7519] | Toxic in response | 
3 | CCN1CCN(C(=O)Cc2ccc(Nc3ncc(F)c(Nc4ccc(C(=O)Nc5ccccc5Cl)cc4)n3)cc2)CC1 [Aurora A inhibitor I] | Toxic in response | IC50 ([3]; Aurora A): 3.4 nM; B/A ratio ([3]; Aurora B / Aurora A selectivity): 1000; IC50 [4]: 3400 nM
4 | COC(=O)c1ccc2c(c1)NC(=O)/C2=C(\Nc1ccc(N(C)C(=O)CN2CCN(C)CC2)cc1)c1ccccc1 [BIBF1120 (Vargatef)] | Suppressed HIV^a | 
5 | N.N.[Cl][Pt][Cl] [Cisplatin] |  | Effect (Clearance Screen) [1]: Suppressed HIV^b
6 | CC1(COc2ccc3c(c2)ncn3-c2ccc3cccc(N4CCC(N)CC4)c3n2)COC1 [Crenolanib (CP-868596), Crenolanib] | Toxic in response | 
7 | Cc1c2oc3c(C)ccc(C(=O)N[C@@H]4C(=O)N[C@H](C(C)C)C(=O)N5CCC[C@H]5C(=O)N(C)CC(=O)N(C)[C@@H](C(C)C)C(=O)O[C@@H]4C)c3nc-2c(C(=O)N[C@@H]2C(=O)N[C@H](C(C)C)C(=O)N3CCC[C@H]3C(=O)N(C)CC(=O)N(C)[C@@H](C(C)C)C(=O)O[C@@H]2C)c(N)c1=O [Dactinomycin] (I: T[dV]P[Sar][NMeV] / II: T[dV]P[Sar][NMeV]; ester I:1-I:C, II:1-II:C; linker I:N-II:N via Actinocin(9to1)) |  | Effect (Clearance Screen) [1]: Suppressed HIV^b
8 | C[C@@H](CN1CC(=O)NC(=O)C1)N1CC(=O)NC(=O)C1 [Dexrazoxane] |  | Effect (Clearance Screen) [1]: Suppressed HIV^b
9 | C#Cc1cccc(Nc2ncnc3cc(OCCOC)c(OCCOC)cc23)c1 [Erlotinib hydrochloride] | Toxic in response | 
10 | CO[C@H]1C[C@@H]2CC[C@@H](C)[C@@](O)(O2)C(=O)C(=O)N2CCCC[C@H]2C(=O)O[C@H]([C@H](C)C[C@@H]2CC[C@@H](OCCO)[C@H](OC)C2)CC(=O)[C@H](C)/C=C(\C)[C@@H](O)[C@@H](OC)C(=O)[C@H](C)C[C@H](C)/C=C/C=C/C=C/1C [Everolimus] |  | Effect (Clearance Screen) [1]: Suppressed HIV^b
11 | O=c1[nH]c(=O)n([C@H]2C[C@H](O)[C@@H](CO)O2)cc1F [Floxuridine] | Toxic in response | 
12 | COc1cc2c(Oc3ccc(NC(=O)C4(C(=O)Nc5ccc(F)cc5)CC4)cc3F)ccnc2cc1OCCCN1CCOCC1 [Foretinib] | Suppressed HIV^a | 
13 | COc1ncc(-c2ccc3nccc(-c4ccnnc4)c3c2)cc1NS(=O)(=O)c1ccc(F)cc1F [GSK2126458] | Suppressed HIV^a | 
14 | COc1cc2ncnc(Nc3ccc(F)c(Cl)c3)c2cc1OCCCN1CCOCC1 [Gefitinib] | Toxic in response | 
15 | O=P1(NCCCl)OCCCN1CCCl (centres unmarked) [Ifosfamide] |  | Effect (Clearance Screen) [1]: Suppressed HIV^b
16 | c1ccc2c(-c3cnn4cc(-c5ccc(N6CCNCC6)cc5)cnc34)ccnc2c1 [LDN193189] | Toxic in response | 
17 | Cc1ccc(C(=O)Nc2cccc(C(F)(F)F)c2)cc1Nc1nc(-c2cccnc2)nc2c1cnn2C [NVP-BHG712] | Suppressed HIV^a | 
18 | Cc1ccc([N+](=O)[O-])cc1S(=O)(=O)N(C)/N=C/c1cnc2ccc(Br)cn12 [PIK-75] | Toxic in response | IC50 [5]: 76 nM
19 | Cc1ccc(C(=O)Nc2ccc(CN3CCN(C)CC3)c(C(F)(F)F)c2)cc1C#Cc1cnc2cccnn12 [Ponatinib] | Suppressed HIV^a | 
20 | Cc1nnc(C(=O)NC(C)(C)c2nc(C(=O)NCc3ccc(F)cc3)c(O)c(=O)n2C)o1 [Raltegravir] |  | HIV replication (positive control phenotype) ([2]; 10 uM, added 24 hour prior to exposure to HIV): suppressed HIV replication
21 | CC(C)(C)c1cnc(CSc2cnc(NC(=O)C3CCNCC3)s2)o1 [SNS-032 (BMS-387032)] | Toxic in response | 
22 | CN1CCN(CCOc2cc(OC3CCOCC3)c3c(Nc4c(Cl)ccc5c4OCO5)ncnc3c2)CC1 [Saracatinib] | Suppressed HIV^a | 
23 | Cn1nnc2c(C(N)=O)ncn2c1=O [Temozolomide] | Suppressed HIV^a | 
24 | O=C1CCC(N2C(=O)c3ccccc3C2=O)C(=O)N1 (centres unmarked) [Thalidomide] | Suppressed HIV^a | 
25 | CCCS(=O)(=O)Nc1ccc(F)c(C(=O)c2c[nH]c3ncc(-c4ccc(Cl)cc4)cc23)c1F [Vemurafenib] |  | Effect (Clearance Screen) [1]: Suppressed HIV^b
26 | CC[C@]1(O)C[C@H]2CN(CCc3c([nH]c4ccccc34)[C@@](C(=O)OC)(c3cc4c(cc3OC)N(C=O)[C@H]3[C@@](O)(C(=O)OC)[C@H](OC(C)=O)[C@]5(CC)C=CCN6CC[C@]43[C@@H]65)C2)C1 [Vincristine sulfate] | Suppressed HIV^a | 
27 | O=C(CCCCCCC(=O)Nc1ccccc1)NO [Vorinostat] | Toxic in response | 
28 | C=CC(=O)Nc1cccc(Oc2nc(Nc3ccc(N4CCN(C)CC4)cc3OC)ncc2Cl)c1 [WZ4002] | Suppressed HIV^a | 
